Columns and labels:
Yes (h) = Yes (h) (Homo sapiens, UniProt P07947); experiment: Kinase profiling C3.10 Yes human; type: biochemical; conditions: test concentration of 10^−6 M
Description: (§1) The in vitro inhibition of a panel of kinases was assessed using either the glass-fiber filter technology as described by Davies, S. P. et al., Biochem J. (2000), 351; p. 95-105. In the glass-fiber filter technology the activity of the kinase of interest is measured using an appropriate substrate that is incubated with the aforementioned kinase protein in the presence of (^33P) radiolabeled ATP. (^33P) Phosporylation of the substrate is subsequently measured as radioactivity bound on a glassfiber-filter.
(§2) All kinases are pre-diluted to a 10× working concentration prior to addition into the assay. The composition of the dilution buffer for each kinase is detailed below.
(§3) All substrates are dissolved and diluted to working stocks in de-ionised water, apart from histone H1 that is stored in 10× working stock in 20 mM MOPS pH 7.4.
(§4) In a final reaction volume of 25 μl, Yes (h) (5-10 mU) is incubated with 8 mM MOPS pH 7.0, 0.2 mM EDTA, 0.1 mg/ml poly(Glu, Tyr) 4:1, 10 mM MgAcetate and [γ-^33P-ATP] (specific activity approx. 500 cpm/pmol, concentration as required). The reaction is initiated by the addition of the MgATP mix. After incubation for 40 minutes at room temperature, the reaction is stopped by the addition of 5 μl of a 3% phosphoric acid solution. 10 μl of the reaction is then spotted onto a Filtermat A and washed three times for 5 minutes in 75 mM phosphoric acid and once in methanol prior to drying and scintillation counting.

cSRC (h) = cSRC (h) (Homo sapiens, UniProt P12931); experiment: Kinase profiling C3.9 cSRC human; type: biochemical; conditions: test concentration of 10^−6 M
cSRC (h), sequence (P12931 whole entry): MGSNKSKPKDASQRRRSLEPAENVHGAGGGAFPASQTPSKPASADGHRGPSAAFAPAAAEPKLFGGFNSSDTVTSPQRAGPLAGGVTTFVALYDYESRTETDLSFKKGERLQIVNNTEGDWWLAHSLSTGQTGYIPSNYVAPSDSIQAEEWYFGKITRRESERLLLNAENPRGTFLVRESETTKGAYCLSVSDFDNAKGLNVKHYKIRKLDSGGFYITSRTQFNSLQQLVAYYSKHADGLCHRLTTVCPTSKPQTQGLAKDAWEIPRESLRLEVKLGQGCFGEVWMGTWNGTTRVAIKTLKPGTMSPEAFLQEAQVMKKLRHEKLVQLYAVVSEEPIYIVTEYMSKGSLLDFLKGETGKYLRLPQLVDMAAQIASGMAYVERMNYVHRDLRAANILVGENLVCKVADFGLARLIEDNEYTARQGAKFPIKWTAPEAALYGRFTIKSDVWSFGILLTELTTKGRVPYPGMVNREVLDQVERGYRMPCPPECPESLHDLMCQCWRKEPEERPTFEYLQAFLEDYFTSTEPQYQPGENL
Description: as §1, §2, §3
In a final reaction volume of 25 μl, cSRC (h) (5-10 mU) is incubated with 8 mM MOPS pH 7.0, 0.2 mM EDTA, 250 μM KVEKIGEGTYGVVYK (Cdc2 peptide), 10 mM MgAcetate and [γ-^33P-ATP] (specific activity approx. 500 cpm/pmol, concentration as required). The reaction is initiated by the addition of the MgATP mix. After incubation for 40 minutes at room temperature, the reaction is stopped by the addition of 5 μl of a 3% phosphoric acid solution.
10 μl of the reaction is then spotted onto a P30 filtermat and washed three times for 5 minutes in 75 mM phosphoric acid and once in methanol prior to drying and scintillation counting.

Chang cells = experiment: GSK-3 cellular assay (C2): 14C-D-glucose incorporation into glycogen; type: cell-based; conditions: increase in D-glucose incorporation into glycogen, test concentration of 10^−6 M
How it was run: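 After 3 days of culture, Chang cells were switched to serum- and glucose-free DMEM and given compound at 10^−6 M plus substrate (3 mM glucose, 0.5 μCi ¹⁴C-D-glucose) for 90 min. Glycogen was isolated by KOH extraction and ethanol precipitation, then scintillation-counted. Scores ran from 1 (10–30% increase in incorporation) to 4 (>80%).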

CDK2/cyclinA (h) = CDK2/cyclinA (h) (Homo sapiens, UniProt P24941); experiment: Kinase profiling C3.3 CDK2/cyclinA human; type: biochemical; conditions: test concentration of 10^−6 M
How it was run: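 Human CDK2/cyclinA (5-10 mU) phosphorylates 0.1 mg/ml histone H1 in 8 mM MOPS pH 7.0, EDTA, 10 mM Mg acetate with [γ-33P]ATP, 40 min at room temperature. After phosphoric acid stop, filter-bound 33P counted by scintillation.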

Aurora-A (h) = biological target: T1, Aurora-A (h) (Homo sapiens, UniProt O14965); experiment: Kinase profiling C3.1 Aurora-A human; type: biochemical; conditions: test concentration of 10^−6 M
T1 sequence (O14965 1-403): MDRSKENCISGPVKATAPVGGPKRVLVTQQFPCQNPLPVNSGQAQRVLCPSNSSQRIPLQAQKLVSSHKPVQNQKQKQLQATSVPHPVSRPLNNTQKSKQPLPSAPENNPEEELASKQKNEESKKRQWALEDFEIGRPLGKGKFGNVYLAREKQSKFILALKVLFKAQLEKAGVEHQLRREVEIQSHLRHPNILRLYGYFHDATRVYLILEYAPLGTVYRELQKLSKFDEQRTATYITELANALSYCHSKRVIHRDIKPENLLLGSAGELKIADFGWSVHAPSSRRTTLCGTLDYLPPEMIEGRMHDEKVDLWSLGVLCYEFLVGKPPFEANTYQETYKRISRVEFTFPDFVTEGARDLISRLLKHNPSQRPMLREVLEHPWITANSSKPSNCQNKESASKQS
Description: as §1, §2, §3
as §4, with “Aurora-A” for “Yes”, “200 μM LRRASLG (Kemptide),” for “0.1 mg/ml poly(Glu, Tyr) 4:1,”, “P30 filtermat” for “Filtermat A”, “50” for “75”

Yes (h), sequence (P07947 whole entry): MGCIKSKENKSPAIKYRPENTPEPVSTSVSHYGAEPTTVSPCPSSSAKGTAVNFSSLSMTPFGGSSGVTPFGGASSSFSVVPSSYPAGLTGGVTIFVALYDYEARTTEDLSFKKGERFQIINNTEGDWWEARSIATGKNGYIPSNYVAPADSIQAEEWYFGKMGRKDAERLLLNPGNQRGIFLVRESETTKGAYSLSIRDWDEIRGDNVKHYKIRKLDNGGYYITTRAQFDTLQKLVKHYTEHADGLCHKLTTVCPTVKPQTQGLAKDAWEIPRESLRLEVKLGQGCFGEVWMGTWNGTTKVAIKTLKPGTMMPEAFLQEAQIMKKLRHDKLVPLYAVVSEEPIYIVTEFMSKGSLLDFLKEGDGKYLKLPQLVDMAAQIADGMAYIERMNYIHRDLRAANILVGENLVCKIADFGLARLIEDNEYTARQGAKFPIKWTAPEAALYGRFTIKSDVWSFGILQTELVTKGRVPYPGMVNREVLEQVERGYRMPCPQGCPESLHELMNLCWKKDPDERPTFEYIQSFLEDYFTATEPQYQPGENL

Row | C3.10 score (Yes (h)) | C3.9 score (cSRC (h)) | C3.3 score (CDK2/cyclinA (h)) | C3.1 score (Aurora-A (h)) | Structure (SMILES) | C2 Score (Chang cells)
1 | 2 (Score 2 = 30-60% inhibition) | 2 (Score 2 = 30-60% inhibition) | 4 (Score 4 = >80% inhibition) | 1 (Score 1 = 10-30% inhibition) | CN1CCCc2cc(ccn2)-c2ncnc(n2)Nc2cccc(c2)CNC(=O)C1 [Compound 7] | 3 (Score 3=60-80% increase)
2 | 4 (Score 4 = >80% inhibition) | 4 (Score 4 = >80% inhibition) | 2 (Score 2 = 30-60% inhibition) | 2 (Score 2 = 30-60% inhibition) | O=C1NCCCc2cc(ccc2F)-c2ncnc(n2)Nc2cc(Cl)cc(c2)CN[C@H]1CO [Compound 71] | 4 (Score 4=>80% increase in D-glucose incorporation)

Source: patent publication US8778919B2, “Cyclic anilino—pyridinotriazines” (Janssen Pharmaceutica NV, priority 2005, dated 2014)
